This is an account of results in US20070203066A1, “Compositions and methods for inhibiting cellular proliferation” (priority 2005, published 2007).

As usually defined, the IC50 is the midpoint of a concentration-inhibition curve.

Primed or numbered codes have the meaning given here. No end group written: not given here. Ida(3) = iminodiacetic acid linker, Lys side-chain amines bound to its two carboxyl groups; Ida(4) = iminodiacetic acid linker (dimerization linker bound to lysine side chain); ATA = not defined here; GP3 = not defined here

The test deals with HUVECs. It counts as cell-based. The note with it: HUVEC proliferation, bFGF at 10 ng/ml or VEGF at 5 ng/ml, 48 hours, BrdU incorporation; read-out: IC50 on HUVECs. Summed up: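 HUVECs seeded at 5,000 cells/well in EBM with 2% FCS, adhered ≥12 hours, then stimulated with bFGF 10 ng/ml or VEGF 5 ng/ml plus varying peptide concentrations. After 48 hours at 37 ° C, 5% CO2, proliferation inhibition read by BrdU incorporation.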
As for “415 (Ac-ARRRRQAVRIKFV; not fully specified (residue 11, bridges); also: homodimer of residues 1-13 via Ida linker on K11 side chain) [compound 415]”, the IC50 is less than 10 µM.

“416 (Ac-ARRRRQAVRIKF; not fully specified (residue 11); also: homodimer via Ida linker on Lys side chains, linker at 11 via Ida, other end not in the chain) [compound 416]”: the IC50 is less than 10 µM.

“417 (Ac-RRRRRQAVAIKFV; not fully specified (residue 11); also: homodimer via Ida linker on Lys side chains, linker at 11 via Ida, other end not in the chain) [compound 417]”: the IC50 was less than 10 µM.

“418 (Ac-ARRRRQPVAIYFK; not fully specified (residue 13, C-terminus); also: homodimer of residues 1-13 via Ida linker on K13 side chain) [compound 418]”: the IC50 was less than 10 µM.

In the case of “419 (Ac-ARRRRQQVAIYFK; not fully specified (residue 13, C-terminus); also: homodimer of residues 1-13 via Ida linker on K13 side chain) [compound 419]”, the IC50 was less than 10 µM.

Take “420 (Ac-ARRRRQSVAIYFK; not fully specified (residue 13, C-terminus); also: homodimer of residues 1-13 via Ida linker on K13 side chain) [compound 420]”: the IC50 was less than 10 µM.

For “421 (Ac-RRRRRQAVAIKF; not fully specified (residue 11); also: homodimer of residues 1-12 via Ida linker on K11 side chain) [compound 421]”, the IC50 is less than 10 µM.

Turning to “422 (Ac-ARRRRQTVAIYFK; not fully specified (residue 13, C-terminus); also: homodimer of residues 1-13 via Ida linker on K13 side chain) [compound 422]”, the IC50 was less than 10 µM.

With “423 (Ac-ARRRRQRVAIKFV; not fully specified (residue 11); also: homodimer of residues 1-13 via Ida linker on K11 side chain) [compound 423]”, the IC50 is less than 10 µM.

For the substance “424 (Ac-ARRRRQWVAIYFK; not fully specified (residue 13, C-terminus); also: homodimer of residues 1-13 via Ida linker on K13 side chain) [compound 424]”, the IC50 is less than 10 µM.

In the case of “425 (Ac-ARRRRQRVAIKF; not fully specified (residue 11); also: homodimer of residues 1-12 via Ida linker on Lys11 side chain) [compound 425]”, the IC50 was less than 10 µM.

Consider “426 (Ac-ARRRRQYVAIYFK; not fully specified (residue 13, C-terminus); also: homodimer of residues 1-13 via Ida linker on Lys13 side chain) [compound 426]”, for which the IC50 is less than 10 µM.

In the case of “427 (Ac-ARRRRQAVAIK(Ida(4))F; also: homodimer of residues 1-12 via Ida linker on Lys11 side chain) [compound 427]”, the IC50 was less than 10 µM.

Turning to “428 (Ac-ARRRRQAVAIK(GP3)F; reading uncertain; also: homodimer via GP3 linker at K11) [compound 428]”, the IC50 was less than 10 µM.

For the substance “429 (Ac-ARRRRQAVAIK(Ida(4))FI; also: homodimer via Ida linker at K11) [compound 429]”, the IC50 is less than 10 µM.

Turning to “430 (Ac-ARRRRQAVAIK(Ida(4))YF; also: homodimer via Ida linker at K11) [compound 430]”, the IC50 was less than 10 µM.

As for “431 (Ac-ARRRRQAVAIYK(Ida(4))F; also: homodimer via Ida linker at K12) [compound 431]”, the IC50 is less than 10 µM.

In the case of “433 (Ac-RRRREQAVAIYFK(Ida(4)); not fully specified (C-terminus); also: homodimer via Ida linker at K13) [compound 433]”, the IC50 is 10 to 30 µM.

Take “434 (Ac-RRRRFQAVAIYFK(Ida(4)); not fully specified (C-terminus); also: homodimer via Ida linker at K13) [compound 434]”: the IC50 is less than 10 µM.

As to “435 (Ac-RRRRGQAVAIYFK(Ida(4)); not fully specified (C-terminus); also: homodimer via Ida linker at K13) [compound 435]”, the IC50 was less than 10 µM.

For the substance “436 (Ac-RRRRLQAVAIYFK(Ida(4)); not fully specified (C-terminus); also: homodimer via Ida linker at K13) [compound 436]”, the IC50 was less than 10 µM.

For the substance “437 (Ac-RRRRMQAVAIYFK(Ida(4)); not fully specified (C-terminus); also: homodimer via Ida linker at K13) [compound 437]”, the IC50 is less than 10 µM.

In the case of “438 (Ac-RRRRNQAVAIYFK(Ida(4)); not fully specified (C-terminus); also: homodimer via Ida linker at K13) [compound 438]”, the IC50 was less than 10 µM.

As for “439 (Ac-RRRRPQAVAIYFK(Ida(4)); not fully specified (C-terminus); also: homodimer via Ida linker at K13) [compound 439]”, the IC50 is less than 10 µM.

Turning to “440 (Ac-RRRRSQAVAIYFK(Ida(4)); not fully specified (C-terminus); also: homodimer via Ida linker at K13) [compound 440]”, the IC50 was less than 10 µM.

For the substance “441 (Ac-RRRRTQAVAIYFK(Ida(4)); not fully specified (C-terminus); also: homodimer via Ida linker at K13) [compound 441]”, the IC50 was less than 10 µM.

“442 (Ac-RRRRVQAVAIYFK(Ida(4)); not fully specified (C-terminus); also: homodimer via Ida linker at K13) [compound 442]”: the IC50 is less than 10 µM.

Turning to “443 (Ac-RRRRWQAVAIYFK(Ida(4)); not fully specified (C-terminus); also: homodimer via Ida linker at K13) [compound 443]”, the IC50 is less than 10 µM.

Turning to “444 (Ac-RRRRYQAVAIYFK(Ida(4)); not fully specified (C-terminus); also: homodimer via Ida linker at K13) [compound 444]”, the IC50 is less than 10 µM.

On to “446 (Ac-RRRRRQAVAIYFK(ATA); reading uncertain; also: homotrimer via Ata linker at K13) [compound 446]”, for which the IC50 is less than 10 µM.

Regarding “448 (Ac-RRRRRQAAAAAAK(Ida(4)); not fully specified (C-terminus); also: homodimer via Ida linker at K13) [compound 448]”, the IC50 was greater than 30 µM.

Consider “449 (Ac-RRRRRAAAAAAAK(Ida(4)); not fully specified (C-terminus); also: homodimer via Ida linker at K13) [compound 449]”, for which the IC50 is greater than 30 µM.

With “450 (Ac-ARRRRQAVAILFK-NH2; not fully specified (residue 13); also: homodimer via Ida linker at K13) [compound 450]”, the 50% inhibitory concentration (IC50) is less than 10 µM.

For “451 (Ac-NRRRRQAVAIVFK-NH2; also: homodimer via Ida linker at K13) [compound 451]”, the half-inhibitory concentration (IC50) was greater than 30 µM.

Turning to “452 (Ac-PRRRRQAVAIVFK-NH2; not fully specified (residue 13); also: homodimer via Ida linker at K13) [compound 452]”, the IC50 was less than 10 µM.

For “453 (Ac-QRRRRQAVAIVFK-NH2; not fully specified (residue 13); also: homodimer via Ida linker at K13) [compound 453]”, the IC50 was less than 10 µM.

“454 (Ac-SRRRRQAVAIVFK-NH2; not fully specified (residue 13); also: homodimer via Ida linker at K13) [compound 454]”: the IC50 was less than 10 µM.

In the case of “455 (Ac-TRRRRQAVAIVFK-NH2; not fully specified (residue 13); also: homodimer via Ida linker at K13) [compound 455]”, the half-inhibitory concentration (IC50) was less than 10 µM.

Consider “456 (Ac-KRRRRQAVAIVF; not fully specified (residue 1); also: homodimer via Ida linker on K1 side chain) [compound 456]”, for which the IC50 is greater than 30 µM.

“457 (Ac-PRRRRQAVAIYFK(ATA); reading uncertain; also: homotrimer via Ata linker on Lys13 side chain) [compound 457]”: the IC50 was greater than 30 µM.

Regarding “458 (Ac-KARRRRQAVAIYF; not fully specified (residue 1); also: homodimer via Ida linker on Lys side chains, linker at 1 via Ida, other end not in the chain) [compound 458]”, the IC50 is greater than 30 µM.

“459 (Ac-KRRRRQAVAIYF; not fully specified (residue 1); also: homodimer via Ida linker on Lys side chains, linker at 1 via Ida, other end not in the chain) [compound 459]”: the IC50 was greater than 30 µM.

Regarding “460 (Ac-ARRK(Ida(3))RQAVAIYF; also: homodimer via Ida linker on Lys side chains, linker at 4 via Ida, other end not in the chain) [compound 460]”, the IC50 fell in the range of 10 to 30 µM.

With “461 (Ac-ARRRK(Ida(3))QAVAIYF; also: homodimer via Ida linker on Lys side chains, linker at 5 via Ida, other end not in the chain) [compound 461]”, the IC50 fell in the range of 10 to 30 µM.
